Test results taken from US8518989B2, “Prodrugs of short-chain fatty acids and treatment methods” (Georgia Health Sciences University Research Institute, Inc., priority 2005, dated 2013).
Read-outs that look alike come from different tables or passages of the source.

Tests used:
[1] = target: T1, human SLC5A8 (Homo sapiens, UniProt Q8N695, F251V/V193I); assay: Uptake of radiolabeled short-chain fatty acids in Xenopus oocytes injected with SLC5A8 cRNA; format: cell-based; parameters: Uptake, uninjected oocytes / Uptake, cRNA-injected oocytes: unit not given here; conditions: 1 h incubation; for Uptake, cRNA-injected oocytes: SLC5A8 cRNA-injected oocytes; for Uptake, uninjected oocytes: uninjected control oocytes
T1 construct: We amplified the coding region of SLC5A8 mRNA by RT-PCR using human intestinal mRNA as the template; expressed in transfected cells; host or cells: Xenopus laevis oocytes, 50 ng capped cRNA from the pGH19 construct
T1 sequence (Q8N695 1-610 V193I/F251V): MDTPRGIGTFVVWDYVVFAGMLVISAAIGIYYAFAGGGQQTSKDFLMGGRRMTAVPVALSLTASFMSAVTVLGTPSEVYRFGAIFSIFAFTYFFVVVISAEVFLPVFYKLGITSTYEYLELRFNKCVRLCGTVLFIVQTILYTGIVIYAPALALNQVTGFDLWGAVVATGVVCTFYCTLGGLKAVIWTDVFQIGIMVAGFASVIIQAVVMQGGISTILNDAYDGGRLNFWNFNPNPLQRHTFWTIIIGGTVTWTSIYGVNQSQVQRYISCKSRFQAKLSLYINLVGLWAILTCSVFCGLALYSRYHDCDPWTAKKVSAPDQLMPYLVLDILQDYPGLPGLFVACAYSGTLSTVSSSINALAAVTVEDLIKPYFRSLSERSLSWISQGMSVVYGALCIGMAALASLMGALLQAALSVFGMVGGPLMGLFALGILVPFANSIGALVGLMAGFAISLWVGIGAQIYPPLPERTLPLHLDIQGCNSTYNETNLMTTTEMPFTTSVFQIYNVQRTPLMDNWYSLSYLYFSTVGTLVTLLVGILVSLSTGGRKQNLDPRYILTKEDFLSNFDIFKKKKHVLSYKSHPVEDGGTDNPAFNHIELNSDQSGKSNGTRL
Method: (§1) The amplified human SLC5A8 cDNA was expressed heterologously in Xenopus oocytes by cRNA injection. Capped cRNA from SLC5A8 cDNA was synthesized using the mMESSAGE mMACHINE kit (Ambion Inc., Austin, Tex.). Mature oocytes (stage 1V or V) from Xenopus laevis were injected with 50 ng cRNA. Uninjected oocytes served as controls. The oocytes were used for uptake and electrophysiological studies 3-6 days after cRNA injection. Uptake of radiolabeled substrates in uninjected and cRNA-injected oocytes was determined as described previously (Fei, Y. J., et al., (1995) Biochemistry 34, 8744-8751).
(§2) Eight oocytes were used for each uptake measurement. Electrophysiological studies were performed by the two-microelectrode voltage clamp method (11. Wang, H., Fei, et al., (2000) Am. J. Physiol. 278:C1019-C1030; Inoue, K, et al. (2004) Biochem. J. 378:949-957).
Uptake of short-chain fatty acids in uninjected oocytes and in oocytes injected with SLC5A8 cRNA was measured with 1 h incubation. Concentration of substrates (labeled plus unlabeled) varied in the range of 50-500 μM depending on the specific radioactivity of the substrates. Eight oocytes were used for each uptake measurement. Data represent means±SE.

[2] = target: T1, human SLC5A8; assay: Two-microelectrode voltage clamp of substrate-induced currents in SLC5A8-expressing oocytes; format: cell-based; conditions: for K0.5 for SLC5A8: Na+ 100 mM
Method: as §1, §2
Oocytes were perfused with a NaCl-containing buffer (100 mM NaCl, 2 mM KCl, 1 mM MgCl2, 1 mM CaCl2, 3 mM Hepes, 3 mM Mes, and 3 mM Tris, pH 7.5), followed by the same buffer containing different fatty acids. The membrane potential was clamped at −50 mV. The differences between the steady-state currents measured in the presence and absence of substrates were considered as the substrate-induced currents. To investigate the current-membrane potential (I—V) relationship, step changes in membrane potential were applied, each for a duration of 100 ms in 20-mV increments. The kinetic parameter K0.5 (i.e. the substrate concentration necessary for the induction of half-maxima) current) was calculated by fitting the values of the substrate-induced currents to Michaelis-Menten equation. The Na^+-activation kinetics was analyzed by measuring the substrate-specific currents in the presence of increasing concentrations of Na^+. The data were analyzed by the Hill equation to determine the Hill coefficient (h; the number of Na^+ ions involved in the activation process). The kinetic parameters were determined using the computer program Sigma Plot, version 6.0 (SPSS, Inc., Chicago, Ill.). Electrophysiological measurements of substrate-induced currents were repeated at least four times with separate oocytes. The data are presented as means±S.E. of these replicates.
The charge-to substrate transfer ratio was determined for propionate in four different oocytes as described previously (Wang, H., et al. (2000) Am. J. Physiol. 278:C1019-C1030 12. Inoue, K., Fei, Y. J., Zhuang, L., Gopal, E., Miyauchi, S., and Ganapathy, V. (2004) Biochem. J. 378:949-957). The oocytes were perfused with 25 μM propionate (unlabeled plus radiolabeled propionate), and inward currents were monitored over a period of 8-10 min. At the end of the experiment, the amount of propionate transported into the oocytes was calculated by measuring the radioactivity associated with the oocytes. The area within the curve describing the relationship between the time and inward current was integrated to calculate the charge transferred into the oocyte during incubation with propionate. The values for substrate transfer and charge transfer were used to determine the charge to substrate transfer ratio.

[3] = target: T2, rat ATB^0,+ (Rattus norvegicus, UniProt Q334I2); assay: Substrate-induced inward currents in Xenopus oocytes expressing rat ATB0,+ (voltage clamp); format: cell-based; conditions: for Inward currents induced in ATB0,+-expressing oocytes (in words): 5 mM; for Inward currents induced in ATB0,+-expressing oocytes (in words) / K0.5 (substrate concentration for half-maximal current): voltage clamp; for K0.5 (substrate concentration for half-maximal current): ATB0,+-expressing oocytes
T2 sequence (Q334I2 1-640): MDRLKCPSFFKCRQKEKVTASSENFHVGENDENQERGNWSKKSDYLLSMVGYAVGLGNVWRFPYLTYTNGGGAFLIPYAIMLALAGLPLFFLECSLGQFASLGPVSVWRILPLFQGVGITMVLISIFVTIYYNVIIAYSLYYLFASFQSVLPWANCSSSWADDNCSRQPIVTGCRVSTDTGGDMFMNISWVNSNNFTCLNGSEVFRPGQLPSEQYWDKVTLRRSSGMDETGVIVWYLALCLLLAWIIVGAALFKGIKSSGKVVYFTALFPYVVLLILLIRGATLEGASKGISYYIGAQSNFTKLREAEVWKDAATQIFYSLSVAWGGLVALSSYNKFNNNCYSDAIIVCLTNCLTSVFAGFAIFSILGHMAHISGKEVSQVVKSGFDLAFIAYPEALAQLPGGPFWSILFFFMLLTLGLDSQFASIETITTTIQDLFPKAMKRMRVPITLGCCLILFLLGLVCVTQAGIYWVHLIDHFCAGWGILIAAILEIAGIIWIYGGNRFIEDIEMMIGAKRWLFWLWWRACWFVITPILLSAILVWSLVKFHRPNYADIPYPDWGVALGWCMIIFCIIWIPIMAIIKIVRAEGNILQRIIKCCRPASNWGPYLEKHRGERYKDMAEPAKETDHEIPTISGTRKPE
Method: Experiments with HRPE cells were repeated at least three times with three independent transfections and transport measurements made in duplicate in each experiment. Electrophysiological measurements of substrate-induced currents were repeated at least three times with separate oocytes. The data are presented as means±S.E.M. of these replicates. The kinetic parameters, Michaelis constant (Kt) and maximal velocity (Vmax) were calculated by fitting the ATB^0,+-specific transport data to the Michaelis-Menten equation describing a single saturable transport system. Na^+ and Cl^−-activation kinetics were analyzed by fitting the ATB^0,+-specific transport data to the Hill equation for the determination of K0.5 values for Na^+ and Cl^− (concentration of Na^+ and Cl^− necessary for half-maximal activation) and the Hill coefficient (nH; the number of Na^+ or Cl^− ions involved in the activation process). The kinetics parameters were first determined by non-linear regression methods and subsequently confirmed by linear regression methods using the commercially-available computer program SigmaPlot, version 6.0 (SPSS Inc., Chicago, Ill., US).
Therefore, it was necessary to determine whether or not the α-carboxyl esters of neutral amino acids are transportable substrates for ATB^0,+. For this purpose, we used the X. laevis oocyte expression system. Cloned rat ATB^0,+ was functionally expressed in oocytes by injection of corresponding cRNA, and the transport of substrates via the transporter was monitored by inward currents when the oocytes were exposed to putative substrates under voltage-clamp conditions.

[4] = target: T2, rat ATB^0,+; assay: Inhibition of ATB0,+-mediated 3H-glycine uptake in HRPE cells expressing cloned rat ATB0,+; format: cell-based; conditions: for Inhibition of ATB0,+-mediated glycine transport (in words): 5 mM
[5] = tested on: MCF7 cells transfected with SMCT1 cDNA; assay: Colony formation assay in MCF7 cells transfected with SMCT1 cDNA; format: cell-based, human; conditions: SMCT1-expressing MCF7 cells; for IC50: two weeks
[6] = tested on: SW480; conditions: SW480 cells; cited from earlier work

## C[C@@H](O)C(=O)O [D-lactate]
[1]
  Uptake, cRNA-injected oocytes: 1.090 ± 0.041
  Uptake, uninjected oocytes: 0.028 ± 0.002
[2]; four oocytes
  K0.5 for SLC5A8: 742 ± 330 µM

## C[C@H](O)C(=O)O [L-lactate]
[1]
  Fold increase of uptake (cRNA-injected over uninjected): 44.7 fold
  Uptake, cRNA-injected oocytes: 0.402 ± 0.026
  Uptake, uninjected oocytes: 0.009 ± 0.001
[2]; 5 mM, -50 mV, taken as 100%
  Inward current induced: 489±94 nA
[2]; four oocytes
  K0.5 for SLC5A8: 235 ± 24 µM

## N[C@@H](CO)C(=O)O [L-serine]
[3]
  Inward currents induced in ATB0,+-expressing oocytes (in words): induced marked inward currents

## [I-].[Na+] [NaI]
[2]; 5 mM
  Current in SLC5A8 cRNA-injected oocytes (detectable or not): did not induce any detectable current

## CC(=O)OC[C@H](N)C(=O)O [O-acetyl-L-serine]
[4]; 5 mM inhibitor, HRPE cells
  Kt of ATB0,+-mediated glycine transport in the presence of inhibitor: 133 ± 36 µM
  Vmax of ATB0,+-mediated glycine transport in the presence of inhibitor: 46 ± 9 nmol/10^6 cells/30 minutes
[4]; 5 mM inhibitor, HRPE cells, read-out: Inhibition of ATB0,+-mediated glycine transport
  inhibition at 5000 µM: ~90%
[4]; glycine 10 μM, HRPE cells, read-out: IC50 for inhibition of ATB0,+-mediated glycine transport
  IC50: 423 ± 72 µM
[3]
  Inward currents induced in ATB0,+-expressing oocytes (in words): induced marked inward currents
  K0.5 (substrate concentration for half-maximal current): 369 ± 25 µM

## CCCC(=O)OC[C@H](N)C(=O)O [O-butyryl-L-serine, O-Butyryl-L-serine]
[4]
  IC50: 118 ± 8 µM
[4]; 5 mM inhibitor, HRPE cells
  Kt of ATB0,+-mediated glycine transport in the presence of inhibitor: 102 ± 17 µM
  Vmax of ATB0,+-mediated glycine transport in the presence of inhibitor: 47 ± 5 nmol/10^6 cells/30 minutes
[4]; HRPE cells
  Inhibition of ATB0,+-mediated glycine transport (in words): inhibited glycine transport significantly
[3]; 2 mM substrate, Cl- 100 mM
  Hill coefficient for Na+: 1.74±0.23
  K0.5 for Na+: 5.02 ± 0.25 mM
[3]; 2 mM substrate, Na+ 100 mM
  Hill coefficient for Cl-: 1.33±0.02
  K0.5 for Cl-: 6.28 ± 0.33 mM
[3]
  Inward currents induced in ATB0,+-expressing oocytes (in words): induced marked inward currents

## CCC(=O)OC[C@H](N)C(=O)O [O-propionyl-L-serine, O-Propionyl-L-Serine]
[4]
  IC50: 332 ± 59 µM
[4]; 5 mM inhibitor, HRPE cells
  Kt of ATB0,+-mediated glycine transport in the presence of inhibitor: 132 ± 37 µM
  Vmax of ATB0,+-mediated glycine transport in the presence of inhibitor: 61 ± 13 nmol/10^6 cells/30 minutes
[4]; HRPE cells
  Inhibition of ATB0,+-mediated glycine transport (in words): inhibited glycine transport significantly
[3]
  Inward currents induced in ATB0,+-expressing oocytes (in words): induced marked inward currents
  K0.5 (substrate concentration for half-maximal current): 305 ± 31 µM

## CCCC(=O)O [butyrate]
[5]; Homo sapiens, 336 h
  IC50: 37 ± 5 µM

## CCCCCCCC(=O)O [octanoate]
[2]; 5 mM, -50 mV
  Relative magnitude of substrate-induced currents: lowest

## CCCCC(=O)O [pentanoate]
[2]; 5 mM, -50 mV
  Relative magnitude of substrate-induced currents: intermediate

## CCC(=O)O [propionate]
[4]; HRPE cells
  Inhibition of ATB0,+-mediated glycine transport (in words): did not inhibit glycine transport
[3]
  Inward currents induced in ATB0,+-expressing oocytes (in words): did not induce detectable current
[1]
  Fold increase of uptake (cRNA-injected over uninjected): 15.9 fold
  Uptake, cRNA-injected oocytes: 0.255 ± 0.014
  Uptake, uninjected oocytes: 0.016 ± 0.001
[2]; 25 μM substrate, four oocytes
  Charge-to-substrate transfer ratio: 3.1±0.1
[2]; 5 mM substrate
  Hill coefficient (h) for Na+: 2.0±0.1
[2]; 5 mM, -50 mV
  Relative magnitude of substrate-induced currents: maximal
[2]; four oocytes
  K0.5 for SLC5A8: 127 ± 14 µM
[5]
  Effect on cell growth / apoptosis: induce apoptosis
  IC50: 205 ± 40 µM

## CC(=O)C(=O)O [pyruvate]
[5]; Homo sapiens, 336 h
  IC50: 72 ± 12 µM

## EGF: growth factor used as mitogenic stimulus in SW480 cells
[6]
  Cell proliferation: 27%
  Increase of Na+-dependent arginine transport: 66%

## TGF-α: growth factor used as mitogenic stimulus in SW480 cells
[6]
  Cell proliferation: 37%
  Increase of Na+-dependent arginine transport: 100%
